In ChEMBL document CHEMBL6103628, “Structural Optimization of Covalent Inhibitors for Deubiquitinase ChlaDUB1 of Chlamydia trachomatis as Antibiotic Agents” (J Med Chem, 2025):
pIC50: −log10 of the molar value. Values after ≈ are worked out from the molar mass of the structure shown. Active and inactive are the calls of the source. The calls are words filed in the database; no cut-off is given here.

Experiments:
Chlamydia trachomatis = assay: Anti-chlamydial activity against Chlamydia trachomatis serovar L2 infected in human HEp-2 cells assessed as inhibition of chlamydial inclusion incubated for 16 hrs by Alexa488/DAPI staining based immunofluorescence assay; assay type: functional, organism-based; settings: serovar L2, HEp-2, 16 h
[1] = molecular target: T1, Deubiquitinase and deneddylase Dub1 (Chlamydia trachomatis serovar L2 (strain ATCC VR-902B / DSM 19102 /434/Bu)) (UniProt B0B9A0); assay: Inhibition of recombinant Chlamydia trachomatis DUB1 (130 to 401 residues) using Ub-Rh110Gly as fluorogenic substrate at highest concentration incubated for 60 to 360 mins by enzymatic analysis; settings: time 60-360 min
T1 sequence (whole entry): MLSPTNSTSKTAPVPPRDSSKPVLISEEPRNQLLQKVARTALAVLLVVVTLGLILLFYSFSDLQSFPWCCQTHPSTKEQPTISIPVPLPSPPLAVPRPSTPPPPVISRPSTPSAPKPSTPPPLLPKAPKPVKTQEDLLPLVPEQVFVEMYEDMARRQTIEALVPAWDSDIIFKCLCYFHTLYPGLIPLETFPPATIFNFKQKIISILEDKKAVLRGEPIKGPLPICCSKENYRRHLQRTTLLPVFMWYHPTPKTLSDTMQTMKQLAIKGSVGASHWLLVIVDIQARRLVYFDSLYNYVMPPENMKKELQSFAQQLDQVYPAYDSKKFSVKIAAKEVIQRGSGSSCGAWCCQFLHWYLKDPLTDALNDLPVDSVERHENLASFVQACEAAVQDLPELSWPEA

[2] = molecular target: T2, Deubiquitinase and deneddylase Dub2 (Chlamydia trachomatis) (UniProt O84875); assay: Mixed type inhibition of Chlamydia trachomatis DUB2 incubated for 60 mins
T2 sequence (whole entry): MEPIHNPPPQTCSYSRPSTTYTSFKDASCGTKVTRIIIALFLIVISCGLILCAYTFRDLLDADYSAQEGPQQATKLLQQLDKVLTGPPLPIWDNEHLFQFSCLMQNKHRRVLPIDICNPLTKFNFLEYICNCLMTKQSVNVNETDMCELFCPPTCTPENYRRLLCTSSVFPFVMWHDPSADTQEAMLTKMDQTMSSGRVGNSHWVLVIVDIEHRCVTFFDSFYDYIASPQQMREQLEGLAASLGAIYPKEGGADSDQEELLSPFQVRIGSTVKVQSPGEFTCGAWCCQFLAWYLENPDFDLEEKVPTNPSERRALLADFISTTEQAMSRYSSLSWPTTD

[3] = Cytotoxicity against HDFa cells assessed as reduction in cell viability at 16 ug/mL measured after 20 hrs by XTT assay; assay type: toxicity, cell-based; settings: human, dose 16 µg/ml
[4] = molecular target: T3, Ubiquitin thioesterase OTUB2 (Homo sapiens) (UniProt Q96DC9); assay: Inhibition of human OTUB2 at 35 uM relative to control
T3 sequence (whole entry): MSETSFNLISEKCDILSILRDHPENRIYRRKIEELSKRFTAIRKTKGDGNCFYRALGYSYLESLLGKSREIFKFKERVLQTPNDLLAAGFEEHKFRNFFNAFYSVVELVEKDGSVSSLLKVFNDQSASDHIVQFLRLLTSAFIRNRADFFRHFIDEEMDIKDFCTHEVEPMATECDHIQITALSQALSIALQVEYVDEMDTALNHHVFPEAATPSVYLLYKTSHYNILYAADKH

[5] = molecular target: T1, Deubiquitinase and deneddylase Dub1 (Chlamydia trachomatis serovar L2 (strain ATCC VR-902B / DSM 19102 /434/Bu)); assay: Non-covalent inhibition of recombinant Chlamydia trachomatis DUB1 (130 to 401 residues) using Ub-Rh110Gly as fluorogenic substrate incubated for 10 to 360 mins by enzymatic analysis; settings: time 10-360 min
[6] = molecular target: T4, OTU domain-containing protein 3 (Homo sapiens) (UniProt Q5T2D3); assay: Inhibition of human OTUD3 at 35 uM relative to control
T4 sequence (whole entry): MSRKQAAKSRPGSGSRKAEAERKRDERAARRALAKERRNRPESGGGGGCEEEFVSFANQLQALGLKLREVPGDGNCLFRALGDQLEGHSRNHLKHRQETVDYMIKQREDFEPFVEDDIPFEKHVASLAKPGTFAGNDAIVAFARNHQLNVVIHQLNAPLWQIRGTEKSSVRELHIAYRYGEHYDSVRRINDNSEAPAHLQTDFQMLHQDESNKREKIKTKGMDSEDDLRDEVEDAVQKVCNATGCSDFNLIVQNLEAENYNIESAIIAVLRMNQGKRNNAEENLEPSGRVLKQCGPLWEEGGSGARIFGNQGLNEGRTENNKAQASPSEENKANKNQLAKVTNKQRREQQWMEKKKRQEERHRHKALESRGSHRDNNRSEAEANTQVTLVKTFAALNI

[7] = molecular target: T5, Ubiquitin carboxyl-terminal hydrolase 25 (Homo sapiens) (UniProt Q9UHP3); assay: Inhibition of human USP25 at 35 uM relative to control
T5 sequence (whole entry): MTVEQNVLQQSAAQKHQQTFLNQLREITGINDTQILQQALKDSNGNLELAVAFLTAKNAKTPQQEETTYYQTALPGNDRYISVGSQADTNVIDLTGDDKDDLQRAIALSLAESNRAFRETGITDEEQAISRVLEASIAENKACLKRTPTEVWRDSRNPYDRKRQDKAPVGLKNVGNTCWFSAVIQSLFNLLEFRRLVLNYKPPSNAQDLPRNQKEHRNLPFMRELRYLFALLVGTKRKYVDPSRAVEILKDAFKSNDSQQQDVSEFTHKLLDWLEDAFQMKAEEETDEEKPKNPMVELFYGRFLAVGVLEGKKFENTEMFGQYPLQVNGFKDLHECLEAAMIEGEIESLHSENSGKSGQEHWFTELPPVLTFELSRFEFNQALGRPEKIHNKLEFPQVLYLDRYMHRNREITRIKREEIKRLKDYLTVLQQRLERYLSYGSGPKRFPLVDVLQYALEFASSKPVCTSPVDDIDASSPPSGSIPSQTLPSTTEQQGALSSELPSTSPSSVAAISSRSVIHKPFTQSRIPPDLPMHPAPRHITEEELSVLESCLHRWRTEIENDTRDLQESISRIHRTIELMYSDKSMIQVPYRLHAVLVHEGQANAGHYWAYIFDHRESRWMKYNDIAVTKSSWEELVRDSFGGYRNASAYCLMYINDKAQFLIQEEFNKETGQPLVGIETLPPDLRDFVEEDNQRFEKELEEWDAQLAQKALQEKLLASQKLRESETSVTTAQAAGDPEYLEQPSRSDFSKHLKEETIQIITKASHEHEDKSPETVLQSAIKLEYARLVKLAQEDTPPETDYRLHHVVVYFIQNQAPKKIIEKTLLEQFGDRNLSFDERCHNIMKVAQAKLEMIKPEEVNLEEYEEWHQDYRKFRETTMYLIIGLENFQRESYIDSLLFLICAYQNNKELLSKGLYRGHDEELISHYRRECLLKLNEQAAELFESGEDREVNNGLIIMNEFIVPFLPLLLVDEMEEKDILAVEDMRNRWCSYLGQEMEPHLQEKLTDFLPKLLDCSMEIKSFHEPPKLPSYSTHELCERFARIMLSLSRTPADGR

[8] = molecular target: T6, Deubiquitinase and deneddylase Dub2 (Chlamydia trachomatis, UniProt O84875); assay: Inhibition of Chlamydia trachomatis DUB2 incubated for 60 mins
T6 sequence (O84875 whole entry): T2 sequence (whole entry)

SMILES: N#Cc1nccc(C(=O)NCc2nn(C(=O)Cc3ccccc3)c3ccccc23)n1
- IC50 (Chlamydia trachomatis): 25.6 µg/mL (≈ 64.6 µM)
- inhibition [1]: Active; Complete Inhibition Not Observed
- inhibition [2]: Active
- Activity [3]: Toxic
- inhibition [4]: < 25%
- inhibition [5]: Active
- inhibition [6]: < 25%
- inhibition [7]: < 25%
- pIC50 [8]: 4.52
